For six molecules, GI50 results are on record in patent publication US10647680B2, “Urea compound, preparation method therefor and medical use thereof” (Ancureall Pharmaceutical (Shanghai) Co., Ltd., priority 2016, dated 2020).

A value given as a limit tells only on which side of the number the result lay.

The subject of one test is RS4; 11 (FLT3 wild type). Kind of test: In vitro growth inhibition (GI50), RS4; 11. As to conditions: Homo sapiens, RS4-11; Cell lines of leukemia; read-out: GI 50 RS4: 11 FLT3 (WT). It is filed as cell-based, human. The text has this:
(§1) 1. Cell Lines and Cell Cultures
(§2) Tumor cell line is an effective cell model for studying the inhibition of tumor cell growth or proliferation in vitro. In the present invention, a representative tumor cell line was selected to determine the cell growth inhibition activity of the present compound. All cell lines used were from ATCC, DSMZ, and the Cell Bank of the Chinese Academy of Sciences. Cell culture conditions and methods were in accordance with the requirements of each cell line. Cells were subcultured in vitro for no more than 3 passages each time, and as required, single-clone purification and identification of cell lines could be carried out.
(§3) The cell culture media used were RPMI1640 (Gibco), MEM (Gibco), McCOY'S5A (Gibco), and IMDM (Gibco). The complete medium was prepared by supplement with 5˜20% fetal calf serum (Gibco), 1% double-antibiotics (10000 units/mL penicillin and 10000 units/mL), 2 mM glutamine or 1 mM sodium pyruvate, respectively.
(§4) The human acute […] monomonocyte leukemia cell line MV4-11 (FLT3 ITD+/+ mutant type, ATCC) was cultured in a complete medium comprising 1×IMDM and 10% FBS. Human acute myeloid leukemia cell line MOLM-13 (FLT3 ITD+/− mutant type, DSMZ), human acute lymphoblastic leukemia cell line RS4; 11 (FLT3 wild type, ATCC), human chronic granulocytic leukemia cell line K562 (FLT3 negative expression, positive expression of BCR-ABL fusion protein, ATCC), human promyelocytic leukemia cell line HL-60 (FLT3 wild type, ATCC), human B lymphoblastic leukemia cell line RAMOS (positive expression of Brutons tyrosine protein kinase, ATCC), human acute myeloid leukemia cell line Kasumi-1 (c-Kit N822K mutant type, ATCC), human acute monocytic leukemia cell line U937 (FLT3 wild-type, ATCC), human acute myeloid leukemia cell line OCI-AML3 (NPMc+ mutant type, ATCC), human acute myeloid leukemia cell line KG-1 (expressing FGFR1OP2-FGFR1 fusion protein, ATCC) were cultured in a complete medium comprising 1×RPMI1640 and 10% FBS, respectively.
(§5) The suspension cells were collected by centrifugation. The supernatant was discarded and the cell pellet was resuspended and counted. Different cell concentrations (5˜10×10^4 cells/mL) were prepared according to the growth cycle of each cell line and then seeded on a 96-well plate (Corning), 100 μL/well. The cells were incubated overnight at 37° C., 5% CO2. The compounds were added to the cells on the second day with 2 wells in parallel. The final concentration of organic solvent shall not exceed 1%. The cells were continually incubated for 3 to 5 days, and then subjected to MTT assay.
(§6) The compound was stored in a concentration of 10 mM at −20° C. and diluted to 2- or 10-fold series prior to use.
(§7) Dojindo CCK8 reagent kit was used as MTT assay. […] FC meter was used as microplate reader.
(§8) For adherent cells, culture medium was removed and immediately replaced with the fresh prepared medium which contains 10% CCK8 reagent (100 μL/well). For the suspension cells, CCK8 was directly added to 10% of the final concentration. The cells were continually incubated for 1˜4 h. […] The experiment was independently repeated 1˜3 times, and subject to biological statistical analysis. 4. Experimental Results
(§9) The initial concentration of the compound was 5,000 nM, then it was serially diluted by 2-fold or 10-fold to 0.01 nM. The GI50 value of each test compound was calculated according to the GI50 assay and calculation method. The experiments were repeated 1 to 3 times, and data were subjected to biological statistical analysis.

In test [1] the test system is MOLM-13 (FLT3 ITD+/− mutant type). Kind of test: In vitro growth inhibition (GI50), MOLM-13. It is filed as cell-based, human. As to conditions: Homo sapiens, MOLM-13; Cell lines of leukemia; read-out: GI 50 MOLM-13 FLT3 (ITD+/−).
Text: as §1, §2, §3, §4, §5, §6, §7, §8, §9

The test system of the next test is U937 (FLT3 wild-type). As to the kind of experiment: In vitro growth inhibition (GI50), U937. As to conditions: Homo sapiens, U-937; Cell lines of leukemia; read-out: GI 50 U937 FLT 3(WT). It is filed as cell-based.
Text: as §1, §2, §3, §4, §5, §6, §7, §8, §9

In test [2] the test system is MV4-11 (FLT3 ITD+/+ mutant type). Kind of test: In vitro growth inhibition (GI50), MV4-11. It is filed as cell-based, human. As to conditions: Homo sapiens, MV4-11; Cell lines of leukemia; read-out: GI 50 MV4-11 FLT3 (ITD +/+).
Text: as §1, §2, §3, §4, §5, §6, §7, §8, §9

The test system of test [3] is K562 (FLT3 negative expression, positive expression of BCR-ABL fusion protein). Kind of test: In vitro growth inhibition (GI50), K562. It is filed as cell-based. The conditions noted are these: Homo sapiens, Cell lines of leukemia, read-out: GI 50 K562 BCR-ABL.
Text: as §1, §2, §3, §4, §5, §6, §7, §8, §9

In test [4] the test system is Kasumi-1 (c-Kit N822K mutant type). Kind of test: In vitro growth inhibition (GI50), Kasumi-1. It is filed as cell-based. The conditions noted are these: Homo sapiens, Cell lines of leukemia, read-out: GI 50 Kasumi-1 Kit (N822K).
Text: as §1, §2, §3, §4
as §5, with “Adherent cells were digested with 0.25% pancreatin-EDTA (Gibco). The suspension” for “The suspension”
(§10) The compound of the present invention and the control compound were dissolved in DMSO (Sigma) respectively, with the purity of more than 98%. The compound was stored in a concentration of 10 mM at −20° C. and diluted to 2- or 10-fold series prior to use.
(§11) Dojindo CCK8 reagent kit was used as MTT assay. THERMO […] FC meter was used as microplate reader.
(§12) For adherent cells, culture medium was removed and immediately replaced with the fresh prepared medium which contains 10% CCK8 reagent (100 μL/well). For the suspension cells, CCK8 was directly added to 10% of the final concentration. The cells were continually incubated for 1˜4 h. When a dark yellow color could be observed in the solvent control wells, the absorbance value at OD450 nm was measured and the cell growth rate was calculated according to the following formula: Cell Growth Rate (%)=100*(T−T0)/(C−T0) T=optical density of drug treatment cell well—optical density of blank control well; T0=optical density of cell well before drug treatment—optical density of blank control well; C=optical density of cell well of solvent control group—optical density of blank control well. The concentration value of 50% inhibition of cell growth (GI50) was calculated according to the drug concentration and cell growth rate curve. […]

For test [5], the system named is RAMOS (positive expression of Brutons tyrosine protein kinase). Kind of test: In vitro growth inhibition (GI50), RAMOS. It is filed as cell-based. The conditions noted are these: Homo sapiens, Cell lines of leukemia, read-out: GI 50 Ramos BTK.
Text: as §1, §2, §3, §4, §5, §6, §7, §8, §9

In test [6] the test system is KG-1 (expressing FGFR1OP2-FGFR1 fusion protein). As to the kind of experiment: In vitro growth inhibition (GI50), KG-1. It is filed as cell-based. As to conditions: Homo sapiens; Cell lines of leukemia; read-out: GI 50 KG-1 FGFR1OP 2-FGFR1.
Text: as §1, §2, §3, §4, §5, §6, §7, §8, §9

For the next test, the system named is HL-60 (FLT3 wild type). Kind of test: In vitro growth inhibition (GI50), HL-60. It is filed as cell-based. The conditions noted are these: Homo sapiens, Cell lines of leukemia, read-out: GI 50 HL60 FLT3 (WT).
Text: as §1, §2, §3, §4
as §5, with “Adherent cells were digested with 0.25% pancreatin-EDTA (Gibco). The suspension” for “The suspension”
as §10, §11, §12

Test [7] has as its system OCI-AML3 (NPMc+ mutant type). Kind of test: In vitro growth inhibition (GI50), OCI-AML3. It is filed as cell-based. As to conditions: Homo sapiens, OCI-AML-3; Cell lines of leukemia; read-out: GI 50 OCI- AML3 NPMc+.
Text: as §1, §2, §3, §4, §5, §6, §7, §8, §9

With `CN(C)CCN(C)c1ccc2ncn(-c3ccc(NC(=O)Nc4cc(C(C)(C)C)on4)cc3)c2c1` [Compound 28, 1-(5-tert-butyl-isoxazol-3-yl)-3-(4-{6-[(2-dimethylamino-ethyl)-methyl-amino]-benzimidazol-1-yl}-phenyl)-urea], the GI50 in the test on RS4; 11 (FLT3 wild type) is above 1000 nM; in test [1], 1 to 10 nM; with U937 (FLT3 wild-type), above 1000 nM; in [2] it was 1 to 10 nM; in test [3], above 1000 nM; in test [4] it was above 1000 nM. In addition, the GI50 (in test [5]; in [6]; in the test on HL-60 (FLT3 wild type); in test [7]) was above 1000 nM in each case.
With `CC(C)(C)c1cc(NC(=O)Nc2ccc(-n3cnc4cc(OCC5CCCCO5)ccc43)cc2)[nH]n1` (stereo not drawn) [Compound 87, 1-(5-tert-butyl-2H-pyrazol-3-yl)-3-{4-[5-(tetrahydro-pyran-2-ylmethoxy)-benzimidazol-1-yl]-phenyl}-urea], the GI50 with RS4; 11 (FLT3 wild type) is above 1000 nM; in test [1], 0.1 to 1 nM; in the test with U937 (FLT3 wild-type), above 1000 nM; in [2], 0.1 to 1 nM; in [3], above 1000 nM; in test [4], above 1000 nM. Moreover, the GI50 (in test [5]; in test [6]; with HL-60 (FLT3 wild type); in test [7]) was above 1000 nM in each case.
Turning to `CC(C)(C)c1cc(NC(=O)Nc2ccc(-n3cnc4ccccc43)nc2)no1` [Compound 42, 1-(6-benzimidazol-1-yl-pyridin-3-yl)-3-(5-tert-butyl-isoxazol-3-yl)-urea], the GI50 in the test on RS4; 11 (FLT3 wild type) is above 1000 nM; in test [1], 1 to 10 nM; with U937 (FLT3 wild-type), above 1000 nM; in [2], 1 to 10 nM; in [3], above 1000 nM; in test [4], above 1000 nM. The GI50 (in test [5]; in test [6]; in the test with HL-60 (FLT3 wild type); in test [7]) was above 1000 nM in each case.
Consider `CC(C)(C)c1cc(NC(=O)Nc2ccc(-n3cnc4ccccc43)cc2Cl)no1` [Compound 41, 1-(4-benzimidazol-1-yl-2-chloro-phenyl)-3-(5-tert-butyl-isoxazol-3-yl)-urea], for which the GI50 in the test on RS4; 11 (FLT3 wild type) is above 1000 nM; in test [1], 10 to 100 nM; in the test on U937 (FLT3 wild-type) it was above 1000 nM; in test [2], 10 to 100 nM; in test [3], above 1000 nM; in test [4], above 1000 nM. For the same molecule, the GI50 (in [5]; in [6]; in the test with HL-60 (FLT3 wild type); in [7]) was above 1000 nM in each case.
Regarding `O=C(Nc1ccc(-n2cnc3ccccc32)cc1)Nc1nccs1` [Compound 60, 1-(4-benzimidazol-1-yl-phenyl)-3-thiazol-2-yl-urea], the GI50 (in the test with RS4; 11 (FLT3 wild type); in [1]; with U937 (FLT3 wild-type); in test [2]; in test [3]; in test [4]) was above 1000 nM in each case. Moreover, the GI50 in test [5] was above 1000 nM; in test [6] it was 100 to 1000 nM; with HL-60 (FLT3 wild type), above 1000 nM; in [7], above 1000 nM.
In the case of `CC(C)(C)c1cc(NC(=O)Nc2ccc(-n3cnc4ccccc43)cc2)n(-c2ccccc2F)n1` [Compound 109, 1-(4-benzimidazol-1-yl-phenyl)-3-[5-tert-butyl-2-(2-fluoro-phenyl)-2H-pyrazol-3-yl]-urea], the GI50 in the test on RS4; 11 (FLT3 wild type) was 100 to 1000 nM; in test [1], 1 to 10 nM; with U937 (FLT3 wild-type) it was above 1000 nM; in test [2] it was 1 to 10 nM; in test [3], 100 to 1000 nM; in test [4], above 1000 nM. The GI50 (in [5]; in test [6]; with HL-60 (FLT3 wild type); in test [7]) was above 1000 nM in each case.
